Tests used:
[1] = heat activated transfer of image dye (yellow coupler Y-1, developer CD-2) through gelatin interlayer to polymeric dye receiver, Status A blue density; settings: coupler Y-1, CD-2
Procedure: (§1) Heat Activated Image Transfer. Dried integral films are laminated with gelatin subbed ESTAR™ film base and passed through a set of heated rollers at 0.635 cm./sec. with roller surface temperatures of 110° C. and a pressure of 140 kPa. The two film bases are separated; the gelatin layers adhere to the gelatin subbed ESTAR™ base and are thus separated from the polymeric dye receiver layer and its support. Status A reflection densitometry is obtained on the polymeric dye-receiver layer coated on a reflective support. These density values determined with the appropriate Status A filter are given in Example 1 in Table III.
Thermal Solvent Test Employing a Yellow Dye Forming Coupler. Three film examples are prepared in a manner analogous to examples 1 and 2 above, using a yellow dye forming coupler, Y-1, and a blue sensitized cubic emulsion in place of M-1 and a green sensitized emulsion, respectively. In this example TS-1 is compared with no added hydroxybenzene compound and with a hydroxybenzene without a hydrogen bond accepting functional group (CS-1). The thermal solvent [drawing 8] test layer is coated at gelatin laydown of 1.40 g/m^2 and a thermal solvent test compound at 1.30 g/m^2. The dye generating layer is coated at 1.40 g/m^2 of gelatin, 0.53 g/m^2 of coupler Y-1 and 0.38 g/m^2 of Ag. The photographic development and thermal processing is as described in example 2. […]

[2] = heat activated transfer of image dye (yellow coupler Y-1, developer CD-3) through gelatin interlayer to polymeric dye receiver, Status A blue density; settings: 3 passes; coupler Y-1, CD-3
Procedure: as §1
Thermal Solvent Test Employing a Yellow Dye Forming Coupler. Three film examples are prepared in a manner analogous to examples 1 and 2 above, using a yellow dye forming coupler, Y-1, and a blue sensitized cubic emulsion in place of M-1 and a green sensitized emulsion, respectively. […]
For all three example films the dye density transferred to the dye-receiverlayer in the absence of a thermal processing step (0-pass) is quite small indicating the absence of significant transfer under aqueous processing. […] For film example 15 in which the interlayer contains both gelatin and the thermal test material, TS-1, there is a substantial transfer of image dye as measured by the blue density. […]

[3] = heat activated transfer of image dye (coupler M-1, developer CD-3) through gelatin interlayer to polymeric dye receiver, Status A green density
Procedure: The following 17 examples are prepared to examine the ability of materials to effect the transfer of image dye through intervening layers of gelatin binder into a polymeric dye receiver layer and are described by the coating format shown in FIG. 2. The first layer (FIG. 2, layer 14) contains gelatin binder and the material to be tested as a thermal solvent while the upper layer (FIG. 2, layer 16) contains the image generating chemistry comprising a silver chloride emulsion and a dispersion of a dye generating coupler in a gelatin binder. A third, protective overcoat, layer (FIG. 2, layer 15) containing gelatin and hardener is applied over the first two gelatin test layers.
Examples 1 and 2 describe in detail the preparation of the solutions and dispersions used in these examples. Examples 3 and 4 describe the same film samples processed in a second developer. Example 1 contains no added material in the first gelatin layer. Example 2 is an example of a compound of our invention according to formula I.
Gelatin Interlayer Melt Preparation. This is an interlayer consisting of only gelatin that serves as a control for comparison of the effect of added materials on transfer of heat-transferable dyes through gelatin layers. […]

SMILES | transfer of the integral dye density to the receiver layer [1] | transfer of the integral dye density to receiver [2] | transfer of the dye density in the original image ([3]; 1-pass) | transfer of the dye density in the original image ([3]; 3-pass)
CCCCCCCCCCCCc1ccc(O)cc1 [CS-1] | less than 4% | less than 6% |  | 
CCCCCCCCCCS(=O)(=O)c1ccc(O)cc1 [TS-1, 4-n-Decylsulfonylphenol] |  |  | 45% | 71%
